The record followed here is US20240124460A1, “METHODS AND COMPOSITIONS FOR TARGETED PROTEIN DEGRADATION” (Ranok Therapeutics (Hangzhou) Co. Ltd., priority 2020, published 2024).

Experiment [1] relates to MV-4-11 human acute myeloid leukemia. Kind of experiment: MV-4-11 CCK-8 proliferation assay. Particulars: Homo sapiens, MV4-11; MV-4-11 cells, 72 hr. The class given is cell-based. The method, boiled down:
(§1)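 Lines were maintained according to ATCC guidance. Compounds were then applied as a 3-fold titration from 20 μM to 1.02 nM, and proliferation was measured by CCK-8 absorbance, normalised to DMSO controls minus a no-cell blank.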
For orientation: Tetrazolium assays rely on reduction of a dye to a coloured formazan, in cell work by metabolically active cells.

For experiment [2], the target named is T1, HSP90α protein (Homo sapiens, UniProt P07900).
T1 construct: purchased BPS Bioscience #50298
Kind of experiment: HSP90α-binding FP (BODIPY) assay. Particulars: FP competition with BODIPY-labeled RNK04010. The method, boiled down: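 Fluorescence polarization measured competition with N-terminal human HSP90α, using either FITC-geldanamycin or BODIPY-labelled triazolone RNK04010 as tracer (5 nM final each). Compounds were tested in 2.5-fold dilutions from 20 μM to 5.2 nM, with incubation at 25 °C for 120 min (FITC) or 300 min (BODIPY).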

Experiment [3] has as its system U-87 MG human glioblastoma. Kind of experiment: U87 MG CCK-8 proliferation assay. The class given is cell-based. Particulars: Homo sapiens, U-87 MG, 72 h, U-87 MG cells, read-out: U87MG CCK-8. In a few lines: as §1
The subject of the next experiment is ERBB2. In words: ERBB2 (HER2) flow cytometry protein degradation assay in BT-474 cells. In kind it is cell-based, human. Particulars: DC50, BT-474 cells, 24 hr. In a few lines:
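BT-474 cells trypsinised after compound treatment and stained with PE-conjugated anti-ERBB2 antibody, 30 min at 25° C in the dark, then fixed in 1% paraformaldehyde for flow cytometry. % inhibition = 100−(D−B)/(S−B)*100, using treated, untreated-stained and unstained cell fluorescence.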
(Flow cytometry measures light scatter and fluorescence of single cells or particles in a stream.)

The target of experiment [4] is T2, MAPK7 (Homo sapiens, UniProt Q13164). In words: MAPK7 kinase assay (ADP-Glo). Set-up: purchased Carna Biosciences #04-146. The class given is biochemical. Particulars: ATP 340 μM. The protocol:
The inhibition of MAPK7 kinase activity by test compounds was measured by the ADP-Glo Kinase Assay (Promega, #V6930), following the manufacturer's instructions, except as noted. 3-fold serial dilutions of each test compound were prepared ranging from 50 μM to 2.54 nM. Also, as a positive control, a 4-fold serial dilution of the MAPK7 inhibitor, XMD17-109 (MedChemExpress, #HY-15665) was prepared ranging from 10 μM to 0.04 nM. In brief, in 384-well plates, test compounds were added to the kinase reaction mix containing recombinant MAPK7 protein (Carna Biosciences, #04-146; 20 nM final concentration), myelin basic protein (SignalChem Biotech, #M42-54G; 0.1 mg/ml final concentration) and ATP (340 μM final concentration), then mixed by shaking and incubated with ADP-Glo Reagent and Kinase Detection Reagent. Luminescence was measured on a BioTek plate reader.
Lumpositive: The average ratio for 10 wells of positive controls (10 μM XMD17-109) across the plate.
Lumvehicle: The average ratio for 10 wells of negative controls (0.5% DMSO) across the plate.
(In general: In ADP-Glo the light output rises with the ADP produced.)

The target in experiment [5] is T2, MAPK7. In words: MAPK7 Western blot protein degradation assay in U-87 MG cells. In kind it is cell-based. Set-up: U-87 MG human glioblastoma cells, which express MAPK7; endogenous in cells; host or cells: U-87 MG. Particulars: 48 hr. The protocol:
U-87 MG human glioblastoma cells were seeded in 6- or 12-well tissue culture plates, and after 1 hr, test compounds were added at various concentrations and incubated at 37° C./5% CO2 for 48 hr. Cells were then washed with cold PBS, aspirated and cold RIPA buffer containing a protease/phosphatase inhibitor cocktail was added to lyse cells. After centrifugation, the total protein concentrations of cell lysates were determined using the BCA protein assay. Samples were normalized for equivalent protein concentrations, 5×SDS-PAGE loading buffer added and denatured at 100° C. for 10 min. 20 μl of each sample/well was loaded on a SDS-PAGE gel and electrophoresed for 20 min at 80 V, then 120 V for 1.5 hr. Gels were then electroblotted to nitrocellulose membranes using a wet-transfer method at 250 mA for 2.5 hr. Membranes were incubated with blocking buffer for 1 hr and washed 3 times with TBST for 5 min. Membranes were then incubated with anti-MAPK7 (anti-ERK5; Cell Signaling Technology, #12950) and anti-3-Actin (Cell Signaling Technology, #3700) monoclonal antibodies diluted in blocking buffer at 4° C. overnight per the manufacturer's recommendations. After washing 3 times, blots were incubated with appropriately labeled secondary antibodies for 1 hr at room temperature and washed again. Fluorescence imaging and quantitation was performed using a LI-COR Odyssey. Results was analyzed using GraphPad Prism 7 software.

The subject of experiment [6] is MDA-MB-468 human breast adenocarcinoma. Kind of experiment: MDA-MB-468 CCK-8 proliferation assay. The class given is cell-based. Particulars: MDA-MB-468 cells, 72 hr. The protocol: (§2) The following cancer cell lines were employed: A549 human lung carcinoma (ATCC, #CCL-185); BT-474 human breast carcinoma (ATCC, #HTB-20); MDA-MB-231 human breast adenocarcinoma (ATCC, #CRM−HTB-26); MDA-MB-468 human breast adenocarcinoma (ATCC, #HTB-132); MV-4-11 human acute myeloid leukemia (ATCC, #CRL-9591); and U-87 MG human glioblastoma (ATCC, #HTB-14). Cell lines were cultured essentially according to ATCC recommendations.
(§3) 3-fold serial dilutions of each test compound were prepared ranging from 20 μM to 1.02 nM.
(§4) % Inhibition=100−(D−B)/(S−B)*100%. • S: Absorbance of cells treated with DMSO • D: Absorbance of compound-treated cells • B: Absorbance of medium with DMSO without cells

For experiment [7], the system named is MDA-MB-231 human breast adenocarcinoma. In words: MDA-MB-231 CCK-8 proliferation assay. In kind it is cell-based. Particulars: MDA-MB-231 cells, 72 hr. The protocol: as §2, §3, §4
Experiment [8] deals with T1, HSP90α protein. Kind of experiment: HSP90α-binding FP (FITC) assay. Particulars: FP competition with FITC-geldanamycin. As for the experimental part: Binding of test compounds to HSP90α protein was measured by fluorescent polarization (FP) using the HSP90α (N-terminal) Assay Kit (BPS Bioscience, #50298), following the manufacturer's instructions, except as noted. Fluorescently labeled HSP90-binding compounds, either the provided FITC-geldanamycin (5 nM final concentration) or RNK04010, a triazolone-based HSP90 binding small molecule labeled with BODIPY through a piperazine-phenyl linker (5 nM final concentration) were employed. A 2.5-fold serial dilution of each test compound ranging from 20 μM to 5.2 nM was assayed for binding to HSP90α. After the final step of adding HSP90α protein to each assay well, plates were mixed by brief shaking, incubated at 25° C. for 120 min for FITC-geldanamycin or 300 min for RNK04010, and fluorescence was measured using a PerkinElmer EnVision Plate Reader.

T2 sequence (Q13164 whole entry): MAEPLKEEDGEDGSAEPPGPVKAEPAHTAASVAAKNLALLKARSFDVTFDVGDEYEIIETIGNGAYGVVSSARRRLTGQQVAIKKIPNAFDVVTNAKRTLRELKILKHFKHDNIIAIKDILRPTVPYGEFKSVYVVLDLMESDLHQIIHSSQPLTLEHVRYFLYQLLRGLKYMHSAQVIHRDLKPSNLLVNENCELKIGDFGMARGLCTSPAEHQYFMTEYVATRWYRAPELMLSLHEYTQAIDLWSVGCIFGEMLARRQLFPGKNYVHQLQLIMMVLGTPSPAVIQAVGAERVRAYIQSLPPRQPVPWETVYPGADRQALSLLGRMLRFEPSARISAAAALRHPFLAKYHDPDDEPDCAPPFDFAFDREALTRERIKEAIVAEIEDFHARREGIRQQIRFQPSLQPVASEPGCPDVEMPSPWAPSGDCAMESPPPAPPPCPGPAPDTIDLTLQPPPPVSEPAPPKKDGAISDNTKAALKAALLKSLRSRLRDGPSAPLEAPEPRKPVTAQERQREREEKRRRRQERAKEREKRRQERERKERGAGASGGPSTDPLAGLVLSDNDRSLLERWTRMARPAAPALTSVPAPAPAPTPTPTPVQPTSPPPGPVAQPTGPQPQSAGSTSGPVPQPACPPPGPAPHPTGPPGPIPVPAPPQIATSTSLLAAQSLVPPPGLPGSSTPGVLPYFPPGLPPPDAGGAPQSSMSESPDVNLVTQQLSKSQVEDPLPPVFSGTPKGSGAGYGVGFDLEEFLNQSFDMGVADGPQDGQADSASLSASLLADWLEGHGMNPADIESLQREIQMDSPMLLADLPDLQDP

Broadly, the IC50 is the concentration that inhibits the measured activity by half. The low end stands for higher potency, the high end for lower potency. Molecule `CCOc1cc(N2CCC(C(=O)N3CCN(Cc4ccc(-n5c(O)nnc5-c5cc(C(C)C)c(O)cc5O)cc4)CC3)CC2)ccc1Nc1ncc2c(n1)N(C)c1ccccc1C(=O)N2C` [Compound 024, 2-((4-(4-(4-(4-(3-(2,4-dihydroxy-5-isopropylphenyl)-5-hydroxy-4H-1,2,4-triazol-4-yl)benzyl)piperazine-1-carbonyl)piperidin-1-yl)-2-ethoxyphenyl)amino)-5,11-dimethyl-5,11-dihydro-6H-benzo[e]pyrimido[5,4-b][1,4]diazepin-6-one] came in with an EC50 in [1] of under 100 nM. This molecule yielded an IC50 at HSP90α protein [2] of 100 to 1000 nM. Further, the EC50 in experiment [3] is under 100 nM. Besides, the ERBB2 degradation result in the experiment with ERBB2 is reported as “B (DC50 = 100-1000 nM)”. In addition, the half-inhibitory concentration (IC50) at MAPK7 [4] is over 1000 nM. For the same molecule, on MAPK7 [5], the “MAPK7 degradation (30 nM)” value is “C (< 33% degradation)”, the “MAPK7 degradation (100 nM)” value is on record as “B (33-66% degradation)” and the “MAPK7 degradation (1000 nM)” value is recorded as “A (>66% degradation)”.

As for `CCOc1cc(N2CCC(C(=O)N3CCC(CN4CCN(Cc5ccc(-n6c(O)nnc6-c6cc(C(C)C)c(O)cc6O)cc5)CC4)CC3)CC2)ccc1Nc1ncc2c(n1)N(C)c1ccccc1C(=O)N2C.Cl` [Compound 032, 2-((4-(4-(4-((4-(4-(3-(2,4-dihydroxy-5-isopropylphenyl)-5-hydroxy-4H-1,2,4-triazol-4-yl)benzyl)piperazin-1-yl)methyl)piperidine-1-carbonyl)piperidin-1-yl)-2-ethoxyphenyl)amino)-5,11-dimethyl-5,11-dihydro-6H-benzo[e]pyrimido[5,4-b][1,4]diazepin-6-one], the results for the EC50 in experiment [1] and in experiment [3] were under 100 nM and 100 to 1000 nM, respectively. The half-maximal inhibitory concentration (IC50) at HSP90α protein [2] was under 100 nM; against MAPK7 [4], over 1000 nM. Also, the ERBB2 degradation entry in the experiment with ERBB2 is “B (DC50 = 100-1000 nM)”. Further, the “MAPK7 degradation (30 nM)” value on MAPK7 [5] is recorded as “C (< 33% degradation)”. Besides, on MAPK7 [5], the “MAPK7 degradation (100 nM)” value is “B (33-66% degradation)”. Besides, the “MAPK7 degradation (300 nM)” value at MAPK7 [5] (300 nM) was “A (>66% degradation)”. Also, the “MAPK7 degradation (1000 nM)” value on MAPK7 [5] is given as “A (>66% degradation)”.

Regarding `CCOc1cc(N2CCC(C(=O)N3CCN(Cc4ccc(-n5c(O)nnc5-c5cc(CC)c(O)cc5O)cc4)CC3)CC2)ccc1Nc1ncc2c(n1)N(C)c1ccccc1C(=O)N2C` [Compound 049, 2-((2-ethoxy-4-(4-(4-(4-(3-(5-ethyl-2,4-dihydroxyphenyl)-5-hydroxy-4H-1,2,4-triazol-4-yl)benzyl)piperazine-1-carbonyl)piperidin-1-yl)phenyl)amino)-5,11-dimethyl-5,11-dihydro-6H-benzo[e]pyrimido[5,4-b][1,4]diazepin-6-one], the EC50 was under 100 nM in experiment [1], under 100 nM in [6], under 100 nM in [7] and 100 to 1000 nM in experiment [3]. This molecule registered an IC50 on HSP90α protein [2] of 100 to 1000 nM.

With `CCOc1cc(N2CCC(C(=O)NCCOCCNC(=O)O[C@H]3CC[C@H](Nc4cc(-n5nc(C(F)(F)F)c6c5CC(C)(C)CC6=O)ccc4C(N)=O)CC3)CC2)ccc1Nc1ncc2c(n1)N(S(C)(=O)=O)c1ccccc1C(=O)N2C` [Compound 105, (1R,4R)-4-((2-carbamoyl-5-(6,6-dimethyl-4-oxo-3-(trifluoromethyl)-4,5,6,7-tetrahydro-1H-indazol-1-yl)phenyl)amino)cyclohexyl (2-(2-(1-(3-ethoxy-4-((5-methyl-11-(methylsulfonyl)-6-oxo-6,11-dihydro-5H-benzo[e]pyrimido[5,4-b][1,4]diazepin-2-yl)amino)phenyl)piperidine-4-carboxamido)ethoxy)ethyl)carbamate], the EC50 is 100 to 1000 nM in experiment [1] and over 1000 nM in [3]. Further, the IC50 on HSP90α protein [2] and against MAPK7 [4] was over 1000 nM throughout. Besides, the ERBB2 degradation entry with ERBB2 was “C (DC50 > 1000 nM)”.

On to `CCOc1cc(N2CCC(C(=O)N3CCC(CN4CCN(Cc5ccc(-n6c(C(=O)NC(C)C(F)(F)F)nnc6-c6cc(CC)c(O)cc6O)cc5)CC4)CC3)CC2)ccc1N(CC)c1ncc2c(n1)N(S(C)(=O)=O)c1ccccc1C(=O)N2C` (stereo not drawn) [Compound 115, 4-(4-((4-((1-(1-(3-ethoxy-4-(ethyl(5-methyl-11-(methylsulfonyl)-6-oxo-6,11-dihydro-5H-benzo[e]pyrimido[5,4-b][1,4]diazepin-2-yl)amino)phenyl)piperidine-4-carbonyl)piperidin-4-yl)methyl)piperazin-1-yl)methyl)phenyl)-5-(5-ethyl-2,4-dihydroxyphenyl)-N-(1,1,1-trifluoropropan-2-yl)-4H-1,2,4-triazole-3-carboxamide], for which the figures for the EC50 in [1] and in experiment [3] were under 100 nM and 100 to 1000 nM, respectively. Moreover, the IC50 on HSP90α protein [2] is 100 to 1000 nM; at MAPK7 [4], over 1000 nM. In the experiment on ERBB2, the ERBB2 degradation result was “B (DC50 = 100-1000 nM)”.

Consider `CCOc1cc(N2CCC(C(=O)N3CCC(CN4CCN(Cc5ccc(-n6c(O)nnc6-c6cc(C(C)C)c(O)cc6OC)cc5)CC4)CC3)CC2)ccc1Nc1ncc2c(n1)N(S(C)(=O)=O)c1ccccc1C(=O)N2C` [Compound 128, 2-((2-ethoxy-4-(4-(4-((4-(4-(3-hydroxy-5-(4-hydroxy-5-isopropyl-2-methoxyphenyl)-4H-1,2,4-triazol-4-yl)benzyl)piperazin-1-yl)methyl)piperidine-1-carbonyl)piperidin-1-yl)phenyl)amino)-5-methyl-11-(methylsulfonyl)-5,11-dihydro-6H-benzo[e]pyrimido[5,4-b][1,4]diazepin-6-one], for which the EC50 in [1] and in experiment [3] was over 1000 nM in each case. Besides, the 50% inhibitory concentration (IC50) against MAPK7 [4] is under 100 nM; on HSP90α protein [8], over 1000 nM.
